From US20120115845A1, “THERAPEUTIC AGENTS” (priority 2007, published 2012)

How the values were obtained:
human GHS receptor [1] = biological target: T1, human GHS receptor (Homo sapiens, UniProt Q92847); assay: h bind IC50 (binding assay, Table 1); conditions: human receptor; Table 1
human GHS receptor [2] = biological target: T1, human GHS receptor; assay: Ghrelin IP1 agonist assay (IP1 HTRF); assay type: cell-based; set-up: expressed in transfected cells; host or cells: HEK293s; conditions: for Emax: 2 h, agonist effect as % maximal effect of GHRP-6 (5 μM), read-out: h IP1 ag %; for EC50: HEK293s cells stably expressing human GHS receptor, 2 hours at 37° C., read-out: h IP1 ag EC50
Method in brief: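 Cells: HEK293s stably expressing human GHS receptor, in stimulation buffer containing 0.02% fatty acid free BSA.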

T1 sequence (Q92847 whole entry): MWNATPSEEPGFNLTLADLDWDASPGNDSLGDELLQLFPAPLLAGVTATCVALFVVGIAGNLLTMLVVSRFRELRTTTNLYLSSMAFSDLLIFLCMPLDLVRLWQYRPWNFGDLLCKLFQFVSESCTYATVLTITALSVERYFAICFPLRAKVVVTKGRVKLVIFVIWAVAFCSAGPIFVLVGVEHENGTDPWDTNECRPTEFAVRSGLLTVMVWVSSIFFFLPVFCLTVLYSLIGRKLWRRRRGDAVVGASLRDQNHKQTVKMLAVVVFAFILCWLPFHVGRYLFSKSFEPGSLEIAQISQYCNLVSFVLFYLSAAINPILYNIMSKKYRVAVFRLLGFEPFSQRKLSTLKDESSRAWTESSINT

For `CC(=O)N1CCC(Oc2ccc(Cl)c(C(=O)NC(=O)Nc3nc4ccc(S(C)(=O)=O)cc4s3)c2)C1` (centres unmarked) [Example 227, 5-(1-acetylpyrrolidin-3-yloxy)-2-chloro-N-(6-(methylsulfonyl)benzo[d]thiazol-2-ylcarbamoyl)benzamide], the IC50 (human GHS receptor [1]) was 3.79 µM, the Emax (human GHS receptor [2]) was 10.6% and the EC50 (human GHS receptor [2]) was ≥ 20 µM.
An IC50 (human GHS receptor [1]) of 0.0634 µM, an Emax (human GHS receptor [2]) of 9.95% and an EC50 (human GHS receptor [2]) of 2.03 µM were found for `CS(=O)(=O)c1ccc2nc(NC(=O)NC(=O)c3ccc(N4CCOCC4)cc3Cl)sc2c1` [Example 115, 2-Chloro-N-[(6-methylsulfonylbenzothiazol-2-yl)carbamoyl]-4-morpholin-4-yl-benzamide] in this work.
An IC50 (human GHS receptor [1]) of 0.0524 µM, an Emax (human GHS receptor [2]) of 23.8% and an EC50 (human GHS receptor [2]) of 0.0513 µM were found for `COCCCS(=O)(=O)c1ccc2nc(NC(=O)NC(=O)c3ccccc3Cl)sc2c1` [Example 192, 2-Chloro-N-[[6-(3-methoxypropylsulfonyl)benzothiazol-2-yl]carbamoyl]benzamide] in this work.
An IC50 (human GHS receptor [1]) of 0.851 µM, an Emax (human GHS receptor [2]) of 24.5% and an EC50 (human GHS receptor [2]) of 0.0351 µM were found for `CCN1CCCC(S(=O)(=O)c2ccc3nc(NC(=O)NC(=O)c4ccccc4Cl)sc3c2)C1` (centres unmarked) [Example 142, 2-Chloro-N-[[6-[(1-ethyl-3-piperidyl)sulfonyl]benzothiazol-2-yl]carbamoyl]benzamide] in this work.
An IC50 (human GHS receptor [1]) of 0.0673 µM, an Emax (human GHS receptor [2]) of 15.7% and an EC50 (human GHS receptor [2]) of 0.0721 µM were found for `O=C(NC(=O)c1ccccc1Cl)Nc1nc2ccc(S(=O)(=O)NCCO)cc2s1` [Example 231, 2-chloro-N-[[6-(2-hydroxyethyl-sulfamoyl)-1,3-benzothiazol-2-yl]carbamoyl] benzamide] in this work.
An IC50 (human GHS receptor [1]) of 0.0878 µM, an Emax (human GHS receptor [2]) of 24.3% and an EC50 (human GHS receptor [2]) of 0.139 µM were found for `CC(C)NS(=O)(=O)c1ccc2nc(NC(=O)NC(=O)c3ccccc3Cl)sc2c1` [Example 224, 2-chloro-N-[[6-(isopropylsulfamoyl)-1,3-benzothiazol-2-yl]carbamoyl]benzamide] in this work.
An IC50 (human GHS receptor [1]) of 0.274 µM, an Emax (human GHS receptor [2]) of 20.4% and an EC50 (human GHS receptor [2]) of 0.28 µM were found for `O=C(NC(=O)c1ccccc1Cl)Nc1nc2ccc(S(=O)(=O)Cc3ncc[nH]3)cc2s1` [Example 189, 2-Chloro-N-[[6-(1H-imidazol-2-ylmethylsulfonyl)benzothiazol-2-yl]carbamoyl]benzamide] in this work.
An IC50 (human GHS receptor [1]) of 0.0089 µM, an Emax (human GHS receptor [2]) of 39.6% and an EC50 (human GHS receptor [2]) of 0.0251 µM were found for `O=C(NC(=O)c1ccccc1Cl)Nc1nc2ccc(S(=O)(=O)C3CCN(CC4CC4)CC3)cc2s1` [Example 182, 2-Chloro-N-[[6-[[1-(cyclopropylmethyl)-4-piperidyl]sulfonyl]benzothiazol-2-yl]carbamoyl]benzamide] in this work.
`CC(C)(CN1CCCC1)S(=O)(=O)c1ccc2nc(NC(=O)NC(=O)c3cc(N4CCOCC4)ccc3Cl)sc2c1` [Example 245, 2-chloro-N-(6-(2-methyl-1-(pyrrolidin-1-yl)propan-2-ylsulfonyl)benzo[d]thiazol-2-ylcarbamoyl)-5-morpholino-benzamide] was tested, and the IC50 (human GHS receptor [1]) was 0.00652 µM, the Emax (human GHS receptor [2]) was 0% and the EC50 (human GHS receptor [2]) was ≥ 20 µM.
An IC50 (human GHS receptor [1]) of 0.0243 µM, an Emax (human GHS receptor [2]) of 9.26% and an EC50 (human GHS receptor [2]) of 15.7 µM were found for `Cc1ccc(C)n1-c1ccc(C(=O)NC(=O)Nc2nc3ccc(S(C)(=O)=O)cc3s2)c(Cl)c1` [Example 119, 2-Chloro-4-(2,5-dimethylpyrrol-1-yl)-N-[(6-methylsulfonylbenzothiazol-2-yl)carbamoyl]benzamide] in this work.
An IC50 (human GHS receptor [1]) of 0.0296 µM and an Emax (human GHS receptor [2]) of 0% were found for `COc1cc(Cl)c(C(=O)NC(=O)Nc2nc3ccc(S(=O)(=O)C4CCN(C)CC4)cc3s2)cc1-n1nccc1C` [Example 265, 2-chloro-4-methoxy-5-(5-methyl-1H-pyrazol-1-yl)-N-(6-(1-methylpiperidin-4-ylsulfonyl)benzo [d]thiazol-2-ylcarbamoyl) benzamide] in this work.
For `CN(C)[C@@H]1CCN(c2ccc(Cl)c(C(=O)NC(=O)Nc3nc4ccc(S(C)(=O)=O)cc4s3)c2)C1` [Example 233, (R)-2-chloro-5-(3-(dimethylamino)pyrrolidin-1-yl)-N-(6-(methylsulfonyl)benzo[d]thiazol-2-ylcarbamoyl) benzamide], the IC50 (human GHS receptor [1]) was 0.0391 µM, the Emax (human GHS receptor [2]) was 10.4% and the EC50 (human GHS receptor [2]) was ≥ 20 µM.
